From patent US20080153896A1, “Polymorphic Forms of an HMG-CoA Reductase Inhibitor and Uses Thereof” (priority 2006, published 2008)

Assay: Stability (integrity) testing of amorphous and polymorphic form under storage conditions, RP-HPLC
Type: physicochemical
Design: key to Impurity RRT 0.738 / Impurity RRT 0.949 / Impurity RRT 1.050 / Impurity RRT 1.550 / Impurity RRT 0.136 / Impurity RRT 0.720 / Impurity RRT 0.706 / Impurity RRT 1.18 / Impurity RRT 1.826: % of total UV absorption (HPLC peak area); Impurity RRT 1.104 / Impurity RRT 1.698: unit not given beside the values
Conditions: Batch 3 PP00205
Experimental: The integrity of the different forms of the (3R, 5R)-7-[2-(4-fluorophenyl)-5-isopropyl-3-phenyl-4-[(4-hydroxymethylphenylamino)carbonyl]-pyrrol-1-yl]-3,5-dihydroxy-heptanoic acid, hemi calcium salt, was tested under different atmospheric conditions to determine the stability of the amorphous and polymorphic form of the drug in various storage environments. Reversed Phase-HPLC (RP-HPLC) was used to separate (3R, 5R)-7-[2-(4-fluorophenyl)-5-isopropyl-3-phenyl-4-[(4-hydroxymethylphenylamino)carbonyl]-pyrrol-1-yl]-3,5-dihydroxy-heptanoic acid, hemi calcium salt, from smaller molecules representing breakdown products as well as oxidized drug. The relative amount of the drug was reported as a percent of total absorption by UV. The total peak area of all UV absorption impurities was used to define total impurity of the drug. Impurities are defined by their relative retention time (RRT) compared to native drug. Samples were injected onto a C18 column using standard temperature, gradient and run-time conditions.
The results of this integrity testing for the amorphous form of (3R, 5R)-7-[2-(4-fluorophenyl)-5-isopropyl-3-phenyl-4-[(4-hydroxymethylphenylamino)carbonyl]-pyrrol-1-yl]-3,5-dihydroxy-heptanoic acid, hemi calcium salt, is shown in Table 5.
Three separate batches of polymorphic Form I of (3R, 5R)-7-[2-(4-fluorophenyl)-5-isopropyl-3-phenyl-4-[(4-hydroxymethylphenylamino)carbonyl]-pyrrol-1-yl]-3,5-dihydroxy-heptanoic acid, hemi calcium salt, were prepared and tested under the same atmospheric conditions described for the amorphous form.

## CC(C)c1c(C(=O)Nc2ccc(CO)cc2)c(-c2ccccc2)c(-c2ccc(F)cc2)n1CC[C@@H](O)C[C@@H](O)CC(=O)[O-].CC(C)c1c(C(=O)Nc2ccc(CO)cc2)c(-c2ccccc2)c(-c2ccc(F)cc2)n1CC[C@@H](O)C[C@@H](O)CC(=O)[O-].[Ca+2] [Form I, (3R,5)-7-[2-(4-fluorophenyl)-5-isopropyl-3-phenyl-4-[(4-hydroxymethylphenylamino)carbonyl]-pyrrol-1-yl]-3,5-dihydroxy-heptanoic acid, hemi calcium salt]
5° C. 2M
  Assay: 98.21 % W/W
  Description: White
  Highest Impurity: 0.402
  Impurity RRT 0.935: 0.402
  Impurity RRT 1.045: 0.340
  Impurity RRT 1.095: 0.155
  Impurity RRT 1.44: 0.203
  Impurity RRT 1.590: 0.096
  Impurity RRT 1.640: 0.064
  Impurity RRT 1.698: 0.067
  Total Impurity: 1.33
  Water: 4.02 % W/W
5° C. 3M
  Assay: 98.20 % W/W
  Description: White
  Highest Impurity: 0.436
  Impurity RRT 0.935: 0.416
  Impurity RRT 1.045: 0.436
  Impurity RRT 1.095: 0.155
  Impurity RRT 1.44: 0.203
  Impurity RRT 1.590: 0.093
  Impurity RRT 1.640: 0.061
  Impurity RRT 1.698: 0.065
  Total Impurity: 1.43
  Water: 4.69 % W/W
5° C. 4M
  Assay: 98.22 % W/W
  Description: White
  Highest Impurity: 0.381
  Impurity RRT 0.138: 0.219
  Impurity RRT 0.935: 0.381
  Impurity RRT 1.045: 0.324
  Impurity RRT 1.095: 0.128
  Impurity RRT 1.449: 0.220
  Impurity RRT 1.596: 0.077
  Impurity RRT 1.640: 0.081
  Impurity RRT 1.698: 0.057
  Total Impurity: 1.487
  Water: 5.08 % W/W
5° C. 5M
  Assay: 98.53 % W/W
  Description: White
  Highest Impurity: 0.410
  Impurity RRT 0.138: 0.231
  Impurity RRT 0.935: 0.410
  Impurity RRT 1.045: 0.321
  Impurity RRT 1.095: 0.140
  Impurity RRT 1.449: 0.198
  Impurity RRT 1.596: 0.075
  Impurity RRT 1.640: 0.049
  Impurity RRT 1.698: 0.058
  Total Impurity: 1.482
  Water: 4.79 % W/W
5° C. 6M
  Assay: 98.15 % W/W
  Description: White
  Highest Impurity: 0.368
  Impurity RRT 0.138: 0.256
  Impurity RRT 0.935: 0.368
  Impurity RRT 1.045: 0.315
  Impurity RRT 1.095: 0.165
  Impurity RRT 1.449: 0.211
  Impurity RRT 1.596: 0.081
  Impurity RRT 1.640: 0.049
  Impurity RRT 1.698: 0.050
  Total Impurity: 1.495
  Water: 4.78 % W/W
5° C. 9M
  Assay: 98.14 % W/W
  Description: White
  Highest Impurity: 0.390
  Impurity RRT 0.138: 0.222
  Impurity RRT 0.935: 0.390
  Impurity RRT 1.045: 0.372
  Impurity RRT 1.095: 0.142
  Impurity RRT 1.449: 0.174
  Impurity RRT 1.596: 0.088
  Impurity RRT 1.640: 0.049
  Impurity RRT 1.698: 0.053
  Total Impurity: 1.490
  Water: 5.39 % W/W
5° C. 12M
  Assay: 98.31 % W/W
  Description: White
  Highest Impurity: 0.438
  Impurity RRT 0.935: 0.438
  Impurity RRT 1.045: 0.383
  Impurity RRT 1.095: 0.177
  Impurity RRT 1.449: 0.217
  Impurity RRT 1.596: 0.090
  Impurity RRT 1.640: 0.066
  Impurity RRT 1.698: 0.066
  Total Impurity: 1.437
  Water: 5.97 % W/W
5° C./1M
  Assay: 98.26 % W/W
  Description: White
  Highest Impurity: 0.421
  Impurity RRT 0.706: 0.042
  Impurity RRT 0.935: 0.421
  Impurity RRT 1.045: 0.352
  Impurity RRT 1.095: 0.165
  Impurity RRT 1.44: 0.21
  Impurity RRT 1.590: 0.100
  Impurity RRT 1.640: 0.074
  Impurity RRT 1.698: 0.071
  Total Impurity: 1.455
  Water: 4.77 % W/W
25° C./60% RH 3M
  Assay: 98.11 % W/W
  Description: White
  Highest Impurity: 0.437
  Impurity RRT 0.935: 0.437
  Impurity RRT 1.045: 0.372
  Impurity RRT 1.095: 0.164
  Impurity RRT 1.44: 0.225
  Impurity RRT 1.590: 0.094
  Impurity RRT 1.640: 0.062
  Impurity RRT 1.698: 0.065
  Total Impurity: 1.42
  Water: 4.65 % W/W
25° C./60% RH 6M
  Assay: 98.10 % W/W
  Description: White
  Highest Impurity: 0.476
  Impurity RRT 0.935: 0.476
  Impurity RRT 1.045: 0.324
  Impurity RRT 1.095: 0.191
  Impurity RRT 1.449: 0.196
  Impurity RRT 1.596: 0.071
  Impurity RRT 1.640: 0.061
  Impurity RRT 1.698: 0.061
  Total Impurity: 1.380
  Water: 4.96 % W/W
25° C./60% RH 9M
  Assay: 97.95 % W/W
  Description: White
  Highest Impurity: 0.408
  Impurity RRT 0.935: 0.408
  Impurity RRT 1.045: 0.361
  Impurity RRT 1.095: 0.187
  Impurity RRT 1.449: 0.225
  Impurity RRT 1.596: 0.096
  Impurity RRT 1.640: 0.062
  Impurity RRT 1.698: 0.055
  Impurity RRT 1.826: 0.053
  Total Impurity: 1.477
  Water: 5.36 % W/W
25° C./60% RH 12M
  Assay: 98.10 % W/W
  Description: White
  Highest Impurity: 0.399
  Impurity RRT 0.138: 0.204
  Impurity RRT 0.935: 0.399
  Impurity RRT 1.045: 0.344
  Impurity RRT 1.095: 0.165
  Impurity RRT 1.449: 0.195
  Impurity RRT 1.596: 0.086
  Impurity RRT 1.640: 0.052
  Impurity RRT 1.698: 0.061
  Total Impurity: 1.506
  Water: 5.57 % W/W
30° C./65% RH 1M
  Assay: 98.21 % W/W
  Description: White
  Highest Impurity: 0.449
  Impurity RRT 0.935: 0.449
  Impurity RRT 1.045: 0.385
  Impurity RRT 1.095: 0.162
  Impurity RRT 1.44: 0.234
  Impurity RRT 1.590: 0.102
  Impurity RRT 1.640: 0.071
  Impurity RRT 1.698: 0.072
  Total Impurity: 1.495
  Water: 4.47 % W/W
30° C./65% RH 2M
  Assay: 98.27 % W/W
  Description: White
  Highest Impurity: 0.416
  Impurity RRT 0.935: 0.416
  Impurity RRT 1.045: 0.362
  Impurity RRT 1.095: 0.163
  Impurity RRT 1.18: 0.048
  Impurity RRT 1.44: 0.216
  Impurity RRT 1.590: 0.100
  Impurity RRT 1.640: 0.063
  Impurity RRT 1.698: 0.062
  Total Impurity: 1.43
  Water: 4.59 % W/W
30° C./65% RH 3M
  Assay: 98.21 % W/W
  Description: White
  Highest Impurity: 0.432
  Impurity RRT 0.935: 0.432
  Impurity RRT 1.045: 0.37
  Impurity RRT 1.095: 0.168
  Impurity RRT 1.44: 0.228
  Impurity RRT 1.590: 0.096
  Impurity RRT 1.640: 0.057
  Impurity RRT 1.698: 0.064
  Total Impurity: 1.43
  Water: 4.82 % W/W
30° C./65% RH 6M
  Assay: 98.06 % W/W
  Description: White
  Highest Impurity: 0.418
  Impurity RRT 0.935: 0.418
  Impurity RRT 1.045: 0.352
  Impurity RRT 1.095: 0.134
  Impurity RRT 1.449: 0.224
  Impurity RRT 1.596: 0.095
  Impurity RRT 1.640: 0.077
  Impurity RRT 1.698: 0.052
  Total Impurity: 1.352
  Water: 4.87 % W/W
30° C./65% RH 9M
  Assay: 97.89 % W/W
  Description: White
  Highest Impurity: 0.407
  Impurity RRT 0.935: 0.407
  Impurity RRT 1.045: 0.340
  Impurity RRT 1.095: 0.150
  Impurity RRT 1.449: 0.216
  Impurity RRT 1.596: 0.103
  Impurity RRT 1.640: 0.064
  Impurity RRT 1.698: 0.053
  Total Impurity: 1.333
  Water: 4.91 % W/W
30° C./65% RH 12M
  Assay: 97.80 % W/W
  Description: White
  Highest Impurity: 0.424
  Impurity RRT 0.935: 0.424
  Impurity RRT 1.045: 0.363
  Impurity RRT 1.095: 0.172
  Impurity RRT 1.449: 0.197
  Impurity RRT 1.596: 0.089
  Impurity RRT 1.640: 0.064
  Impurity RRT 1.698: 0.058
  Total Impurity: 1.367
  Water: 5.33 % W/W
40° C./75% RH 1M
  Assay: 98.23 % W/W
  Description: White
  Highest Impurity: 0.452
  Impurity RRT 0.935: 0.452
  Impurity RRT 1.045: 0.372
  Impurity RRT 1.095: 0.162
  Impurity RRT 1.44: 0.215
  Impurity RRT 1.590: 0.100
  Impurity RRT 1.640: 0.071
  Impurity RRT 1.698: 0.066
  Total Impurity: 1.46
  Water: 4.33 % W/W
40° C./75% RH 2M
  Assay: 98.23 % W/W
  Description: White
  Highest Impurity: 0.422
  Impurity RRT 0.935: 0.422
  Impurity RRT 1.045: 0.351
  Impurity RRT 1.095: 0.169
  Impurity RRT 1.18: 0.052
  Impurity RRT 1.44: 0.219
  Impurity RRT 1.590: 0.090
  Impurity RRT 1.640: 0.066
  Impurity RRT 1.698: 0.065
  Total Impurity: 1.44
  Water: 4.40 % W/W
40° C./75% RH 3M
  Assay: 98.2 % W/W
  Description: White
  Highest Impurity: 0.423
  Impurity RRT 0.935: 0.423
  Impurity RRT 1.045: 0.360
  Impurity RRT 1.095: 0.174
  Impurity RRT 1.44: 0.218
  Impurity RRT 1.590: 0.102
  Impurity RRT 1.640: 0.065
  Impurity RRT 1.698: 0.064
  Total Impurity: 1.41
  Water: 4.75 % W/W
40° C./75% RH 6M
  Assay: 98.16 % W/W
  Description: White
  Highest Impurity: 0.418
  Impurity RRT 0.138: 0.107
  Impurity RRT 0.935: 0.418
  Impurity RRT 1.045: 0.347
  Impurity RRT 1.095: 0.161
  Impurity RRT 1.449: 0.187
  Impurity RRT 1.596: 0.087
  Impurity RRT 1.640: 0.050
  Impurity RRT 1.698: 0.052
  Total Impurity: 1.409
  Water: 5.44 % W/W
Initial
  Assay: 98.43 % W/W
  Description: White
  Highest Impurity: 0.428
  Impurity RRT 0.706: 0.045
  Impurity RRT 0.935: 0.428
  Impurity RRT 1.045: 0.349
  Impurity RRT 1.095: 0.159
  Impurity RRT 1.44: 0.235
  Impurity RRT 1.590: 0.093
  Impurity RRT 1.640: 0.054
  Impurity RRT 1.698: 0.084
  Total Impurity: 1.438
  Water: 4.76 % W/W
